# Experiments:
# migraine headache = settings: cited from earlier work; for efficacy in acute treatment of migraine (in words): literature reports
# [1] = tested on: quinpirole-induced yawning in rats; assay: antagonism of quinpirole-induced yawning in rats; assay type: in vivo, Male Sprague Dawley Rats
# Description: Yawning is a behavior that has been linked to activation of dopaminergic neurotransmission.
# Male Sprague Dawley Rats were used in this example. The animals were allowed 12 day acclimatization before testing and at the time of the study, their body weights ranged from 280-330 grams. The rats were housed in standard size steel cages with four animals per cage and were maintained on a 12 hour light/dark schedule with the lights being on from 6:00 a.m. to 6:00 p.m. All tests were performed between 8:00 a.m. and 2:00 p.m. Six animals were used per group.
# The animals were then placed individually in a 6″×6″plexiglass observation cages and the number of yawns were counted for the subsequent 30 minutes. The results are shown in FIG. 1 with the data being expressed as the mean total number of yawns per 30 minutes. An analysis of variance was used for statistical calculations and probability levels of <0.05 was regarded as being statistically significant.
# migraine = settings: literature reports; cited from earlier work
# D2 dopamine receptor = D2 dopamine receptor (Homo sapiens, UniProt P14416); settings: cited from earlier work
# D2 dopamine receptor, sequence (P14416 whole entry): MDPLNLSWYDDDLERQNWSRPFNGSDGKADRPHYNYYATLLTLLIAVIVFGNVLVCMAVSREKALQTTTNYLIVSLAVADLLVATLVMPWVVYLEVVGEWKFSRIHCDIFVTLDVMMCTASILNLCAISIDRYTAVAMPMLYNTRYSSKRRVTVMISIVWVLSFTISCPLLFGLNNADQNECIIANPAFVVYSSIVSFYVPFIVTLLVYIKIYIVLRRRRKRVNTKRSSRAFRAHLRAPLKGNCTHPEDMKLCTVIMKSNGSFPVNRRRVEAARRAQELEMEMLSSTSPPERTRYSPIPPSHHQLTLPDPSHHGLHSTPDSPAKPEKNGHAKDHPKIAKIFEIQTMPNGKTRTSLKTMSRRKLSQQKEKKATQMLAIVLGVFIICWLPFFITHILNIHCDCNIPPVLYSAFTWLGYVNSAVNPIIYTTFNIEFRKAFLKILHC
# [2] = within 60 minutes of administration, randomized, double-blind clinical trial (Jones et al 1989)
smiles,measurement,setting,value
CN(C)CCCN1c2ccccc2Sc2ccc(Cl)cc21 [Chlorpromazine],efficacy in acute treatment of migraine (in words),migraine headache,highly effective
same,common side effect,migraine headache; migraine patients in an emergency department (Lane et al 1985),moderate drowsiness
"CCCN1CCC[C@@H](c2cccc(S(C)(=O)=O)c2)C1 [Cmpd 1, S-(−)-3-[3-(methylsulfonyl)phenyl]-1-propyl-piperidine]",antagonism of the yawning behavior induced by quinpirole,[1]; 10 or 30 mg/kg injected 15 minutes before quinpirole 0.1 mg/kg,dose-dependent and complete antagonism
same,induction of yawning behavior by compound given alone,[1]; given alone at a dose of 30 mg/kg,failed to induce yawning behavior
O=c1[nH]c2ccccc2n1CCCN1CCC(n2c(=O)[nH]c3cc(Cl)ccc32)CC1 [Domperidone],preventive / prophylactic effect on migraine (in words),migraine,prevent the occurrence of a migraine
Fc1ccc(C(c2ccc(F)cc2)N2CCN(C/C=C/c3ccccc3)CC2)cc1 [Flunarizine],affinity for the D2 dopamine receptor (in words),D2 dopamine receptor,moderate degree of affinity
same,efficacy in acute treatment of migraine (in words),migraine headache,high degree of relief
CCN(CC)CCNC(=O)c1cc(Cl)c(N)cc1OC [Metoclopramide],affinity for the D2 dopamine receptor (in words),D2 dopamine receptor,relatively low affinity
same,preventive / prophylactic effect on migraine (in words),migraine,beneficial effect
CN1CCN(CCCN2c3ccccc3Sc3ccc(Cl)cc32)CC1 [Prochlorperazine],efficacy in acute treatment of migraine (in words),migraine headache,high degree of efficacy
same,additional patients with partial relief,migraine headache; [2],14%
same,patients with complete relief,migraine headache; [2],74%
O=C(CCCN1CCC(O)(c2ccc(Cl)cc2)CC1)c1ccc(F)cc1 [haloperidol],patients with headache completely or substantially relieved,"migraine headache; Fisher, J Emerg Med 1995",six of six
same,time to headache relief after administration,"migraine headache; Fisher, J Emerg Med 1995",25 to 65 min
